Results from publication PMC4292808 (Journal of Medicinal Chemistry, 2014).
pIC50: −log10 of the molar value. One block for each molecule: values may come before it.

What was measured:
[1] = tested on: phosphorylation of IKKα/β and degradation of IκB-α in L929 cells; assay: TNFα-induced NF-κB signaling, Western blot; format: cell-based, mouse
[2] = tested on: phosphorylation of p105, p38 and JNK1/2 in 293 IL-1R cells; assay: IL-1α-induced signaling, Western blot; format: cell-based; conditions: human 293 IL-1R cells stimulated with IL-1α
[3] = tested on: phosphorylation of p105, p38 and JNK1/2 in MEFs; assay: IL-1α-induced signaling, Western blot; format: cell-based, mouse; conditions: MEFs stimulated with IL-1α
[4] = tested on: signaling in Gen2.2 cells; assay: CL097; format: cell-based; conditions: human Gen2.2 cells, 1 μM, 1 h pretreatment
[5] = biological target: T1, TAK1 (Homo sapiens, UniProt O43318); assay: biochemical
T1 sequence (O43318 1-303 limits assumed): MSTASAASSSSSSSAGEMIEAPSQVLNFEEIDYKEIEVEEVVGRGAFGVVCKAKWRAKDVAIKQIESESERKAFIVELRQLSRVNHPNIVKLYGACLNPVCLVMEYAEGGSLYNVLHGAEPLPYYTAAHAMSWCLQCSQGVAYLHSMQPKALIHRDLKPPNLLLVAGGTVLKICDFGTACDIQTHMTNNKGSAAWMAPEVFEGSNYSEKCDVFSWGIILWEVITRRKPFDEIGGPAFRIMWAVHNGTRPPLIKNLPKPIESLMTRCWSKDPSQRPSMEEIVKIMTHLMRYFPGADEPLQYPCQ

[6] = In vivo pharmacokinetic studies; conditions: male, Swiss albino, mouse, plasma, iv, 1 mg/kg
[7] = biological target: T2, MAP4K2 (Homo sapiens, UniProt Q12851); assay: KiNativ HUH7 lysate; format: binding; conditions: in words
T2 sequence (Q12851 1-820): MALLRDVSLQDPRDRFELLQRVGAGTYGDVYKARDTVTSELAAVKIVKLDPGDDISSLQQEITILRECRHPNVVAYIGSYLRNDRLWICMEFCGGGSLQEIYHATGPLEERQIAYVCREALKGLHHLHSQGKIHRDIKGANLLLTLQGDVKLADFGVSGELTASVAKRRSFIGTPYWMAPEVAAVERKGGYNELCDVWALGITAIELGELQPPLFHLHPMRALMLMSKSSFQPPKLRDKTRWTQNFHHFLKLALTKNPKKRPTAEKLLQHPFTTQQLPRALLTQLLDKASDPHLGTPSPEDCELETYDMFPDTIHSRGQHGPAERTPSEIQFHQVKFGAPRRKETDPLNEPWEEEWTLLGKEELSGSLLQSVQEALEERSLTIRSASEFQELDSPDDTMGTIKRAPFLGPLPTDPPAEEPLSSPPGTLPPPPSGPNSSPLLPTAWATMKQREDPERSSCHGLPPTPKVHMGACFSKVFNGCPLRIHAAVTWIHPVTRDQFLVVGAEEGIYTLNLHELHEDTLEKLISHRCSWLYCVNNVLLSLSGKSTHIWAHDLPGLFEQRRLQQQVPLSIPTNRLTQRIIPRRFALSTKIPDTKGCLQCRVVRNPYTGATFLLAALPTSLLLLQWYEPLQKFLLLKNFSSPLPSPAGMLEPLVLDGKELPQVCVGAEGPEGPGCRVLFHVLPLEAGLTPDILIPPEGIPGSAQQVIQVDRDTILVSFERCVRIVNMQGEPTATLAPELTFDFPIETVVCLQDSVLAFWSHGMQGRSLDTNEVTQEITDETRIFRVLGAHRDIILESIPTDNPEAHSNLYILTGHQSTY

[8] = biological target: T3, TAK1 (Homo sapiens, UniProt O43318); assay: KiNativ HUH7 lysate; format: binding; conditions: in words
T3 sequence (O43318 1-606): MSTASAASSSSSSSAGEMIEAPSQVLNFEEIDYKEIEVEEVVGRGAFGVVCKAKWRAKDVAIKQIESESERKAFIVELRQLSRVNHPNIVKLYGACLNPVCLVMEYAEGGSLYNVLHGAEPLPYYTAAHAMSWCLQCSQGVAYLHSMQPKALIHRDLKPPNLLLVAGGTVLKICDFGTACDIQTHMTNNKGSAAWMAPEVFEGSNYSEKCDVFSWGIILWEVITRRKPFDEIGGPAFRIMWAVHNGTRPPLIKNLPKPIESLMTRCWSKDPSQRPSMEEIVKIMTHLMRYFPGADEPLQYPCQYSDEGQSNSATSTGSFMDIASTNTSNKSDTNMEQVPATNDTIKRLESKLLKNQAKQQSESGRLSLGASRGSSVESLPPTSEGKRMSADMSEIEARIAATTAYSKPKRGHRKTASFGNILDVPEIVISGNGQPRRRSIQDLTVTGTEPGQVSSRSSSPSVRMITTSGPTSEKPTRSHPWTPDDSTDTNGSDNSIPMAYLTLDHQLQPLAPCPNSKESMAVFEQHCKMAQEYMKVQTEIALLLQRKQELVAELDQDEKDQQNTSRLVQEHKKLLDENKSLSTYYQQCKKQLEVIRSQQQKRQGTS

[9] = tested on: phosphorylation of p38 MAPK and SMAD2 in WT MEFs; format: cell-based, mouse; conditions: WT and TAK1-deficient MEFs
[10] = tested on: phosphorylation of p38 MAPK in TAK1-deficient MEFs; assay: IL-1 and TGFβ-induced signaling in TAK1-deficient MEFs, Western blot; format: cell-based, mouse; conditions: 500 nM
[11] = biological target: p38α (Homo sapiens, UniProt Q16539); assay: SelectScreen enzymatic assay; format: biochemical; conditions: KiNativ and enzymatic assays, in words
Chain of p38α (Q16539 whole entry): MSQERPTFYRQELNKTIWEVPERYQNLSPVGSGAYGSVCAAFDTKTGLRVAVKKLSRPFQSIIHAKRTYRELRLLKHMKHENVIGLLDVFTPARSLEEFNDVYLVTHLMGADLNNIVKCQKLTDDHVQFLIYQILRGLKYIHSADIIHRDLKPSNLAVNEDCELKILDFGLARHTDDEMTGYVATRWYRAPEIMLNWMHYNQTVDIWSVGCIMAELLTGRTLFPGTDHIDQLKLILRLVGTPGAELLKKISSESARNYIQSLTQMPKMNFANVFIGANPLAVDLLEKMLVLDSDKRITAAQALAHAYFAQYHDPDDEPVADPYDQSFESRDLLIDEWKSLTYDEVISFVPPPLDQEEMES

[12] = tested on: BCR-ABL-dependent Ba/F3 cells; assay: Ba/F3 cell proliferation assay; format: cell-based; conditions: Mus musculus, BaF3, read-out: cell growth inhibition
[13] = 100 nM, 30 min pretreatment, TNFα 5 min, Western blot

- pIC50 [5]: 7.82
- half-life [6]: 2 h
Structure (SMILES): CCN1CCN(Cc2ccc(NC(=O)c3ccc(C)c(Oc4ccnc5[nH]ccc45)c3)cc2C(F)(F)F)CC1 [Compound 1, 3-((1H-Pyrrolo[2,3-b]pyridin-4-yl)oxy)-N-(4-((4-ethylpiperazin-1-yl)methyl)-3-(trifluoromethyl)phenyl)-4-methylbenzamide]
- effect on TNFα-induced phosphorylation of IKKα/β and degradation of IκB-α [1, 13]: comparable cellular potency
- phosphorylation levels of p105, p38 and JNK1/2 [2]: inhibited in a dose-dependent manner
- phosphorylation levels of p105, p38 and JNK1/2 [3]: inhibited in a dose-dependent manner
- CL097-induced signaling [4]: blocked signaling

- activity against MAP4K2 [7]: inactive
- activity against TAK1 [8]: inactive
Structure (SMILES): CCN1CCN(Cc2ccc(NC(=O)c3ccc(C)c(Oc4ccnc(C(=O)NC)c4)c3)cc2C(F)(F)F)CC1 [Compound 9]

Structure (SMILES): C[S+]([O-])c1ccc(-c2nc(-c3ccc(F)cc3)c(-c3ccncc3)[nH]2)cc1 (centres unmarked) [Compound 38, SB203580, reference compound]
- effect on TNFα-induced phosphorylation of IKKα/β and degradation of IκB-α [1, 13]: no effect

Structure (SMILES): CNC(=O)c1ccc(C)c(-n2c(C)cc(OCc3ccc(F)cc3F)c(Br)c2=O)c1 [Compound 39, PH-797804, reference compound]
- effect on TNFα-induced phosphorylation of IKKα/β and degradation of IκB-α [1, 13]: no effect

Structure (SMILES): CNc1cc(Oc2cc(C(=O)Nc3cc(N4CCN(C)CC4)cc(C(F)(F)F)c3)ccc2C)ncn1 [Compound 17]
- effect on TNFα-induced phosphorylation of IKKα/β and degradation of IκB-α [1, 13]: no effect
- effect on TNFα-induced phosphorylation of IKKα/β and degradation of IκB-α ([1]; concentrations up to 1 μM): not very effective
- IL-1 and TGFβ-induced p38 MAPK phosphorylation [9]: dose-dependent inhibition
- TGFβ-induced phosphorylation of SMAD2 [9]: did not inhibit
- IL-1-induced phosphorylation of p38 [10]: complete inhibition

- activity against p38α [11]: inactive
Structure (SMILES): CCN1CCN(Cc2ccc(NC(=O)c3cccc(CCc4cnc5[nH]ccc5c4OC)c3)cc2C(F)(F)F)CC1 [Compound 23]

- clearance at 24 h [6]: 26.5 mL/min/kg
Structure (SMILES): CCN1CCN(Cc2ccc(NC(=O)c3ccc(C)c(Oc4ncnc5[nH]c(C)cc45)c3)cc2C(F)(F)F)CC1 [Compound 5]

Structure (SMILES): Cc1cn(-c2cc(NC(=O)c3ccc(C)c(Oc4ccnc5[nH]ccc45)c3)cc(C(F)(F)F)c2)cn1 [Compound 12]
- effect on TNFα-induced phosphorylation of IKKα/β and degradation of IκB-α [1, 13]: no effect

- activity against p38α [11]: inactive
Structure (SMILES): CCN1CCN(Cc2ccc(NC(=O)c3cccc(/C=C/c4cnc5[nH]ccc5c4OC)c3)cc2C(F)(F)F)CC1 [Compound 24]

Structure (SMILES): CCN1CCN(Cc2ccc(NC(=O)c3ccc(C)c(/C=C/c4cnc5[nH]ccc5c4OC)c3)cc2C(F)(F)F)CC1 [Compound 2, (E)-N-(4-((4-Ethylpiperazin-1-yl)methyl)-3-(trifluoromethyl)phenyl)-3-(2-(4-methoxy-1H-pyrrolo[2,3-b]pyridin-5-yl)vinyl)-4-methylbenzamide]
- inhibition at 0.01 µM [12]: > 50%
- effect on TNFα-induced phosphorylation of IKKα/β and degradation of IκB-α [1, 13]: comparable cellular potency

Structure (SMILES): COc1cc(O)c2c(c1)/C=C/C[C@H](O)[C@H](O)C(=O)/C=C\C[C@H](C)OC2=O [Compound 37, 5Z-7-oxozeaenol, reference compound]
- TGFβ-induced phosphorylation of SMAD2 [9]: inhibited phosphorylation of both p38 and SMAD2

- clearance at 24 h [6]: 65.8 mL/min/kg
Structure (SMILES): CCN1CCN(Cc2ccc(NC(=O)c3ccc(C)c(Oc4ncnc5[nH]ccc45)c3)cc2C(F)(F)F)CC1 [Compound 3]

Structure (SMILES): CCN1CCN(Cc2ccc(NC(=O)c3ccc(OC)c(Oc4ncnc5[nH]ccc45)c3)cc2C(F)(F)F)CC1 [S1]
- CL097-induced signaling [4]: only partially inhibited signaling

Structure (SMILES): CNc1cc(Oc2cc(C(=O)Nc3cc(-n4cnc(C)c4)cc(C(F)(F)F)c3)ccc2C)ncn1 [Compound 16]
- effect on TNFα-induced phosphorylation of IKKα/β and degradation of IκB-α [1, 13]: no effect
- CL097-induced signaling [4]: not able to block
- IL-1 and TGFβ-induced p38 MAPK phosphorylation [9]: dose-dependent inhibition
- TGFβ-induced phosphorylation of SMAD2 [9]: did not inhibit
- IL-1-induced phosphorylation of p38 [10]: complete inhibition

Structure (SMILES): CCN1CCN(Cc2ccc(C(=O)Nc3ccc(C)c(Oc4ccnc5[nH]ccc45)c3)cc2C(F)(F)F)CC1 [Compound 11]
- effect on TNFα-induced phosphorylation of IKKα/β and degradation of IκB-α [1, 13]: no effect

Structure (SMILES): CCN1CCN(Cc2ccc(NC(=O)c3cccc(Oc4ccnc5[nH]ccc45)c3)cc2C(F)(F)F)CC1 [Compound 10]
- inhibition at 0.01 µM [12]: > 50%

- clearance at 24 h [6]: 99.2 mL/min/kg
Structure (SMILES): CCN1CCN(Cc2ccc(NC(=O)c3ccc(C)c(Oc4ncnc5[nH]ncc45)c3)cc2C(F)(F)F)CC1 [Compound 4]
